The text below walks through data of patent publication US11320422B2, “Inhibition of protein degradation for improved production” (LONZA LTD, priority 2016, dated 2022).

“And” between values parts separate entries of the source, which are not always exact repeats. Equal entries are not always repeated. Where a SMILES comes first, the peptide text is derived from it. The star is where a group is joined. Cbz = O=C(OCc1ccccc1)*

Series [1] relates to recombinant CHO antibody producing cell line (CH0149). As to the kind of experiment: Initial assessment of inhibitor concentrations on recombinant CHO cell line growth (viable cell number, culture viability, ViCell). It is filed as cell-based, Chinese hamster. As for the experimental part: (§1) 96 deep well plates (Nunc) were seeded at 4×10^6 cells/ml at 300 μl per well for analysis of proteasome and ERAD inhibitors. Triplicate wells were prepared for each inhibitor for each of the panel of cell lines. […] 100 μl of the well volume was combined with 900 μl PBS and a cell count performed using the ViCell apparatus. The remaining 200 μl was centrifuged at 1000 rpm for 5 minutes and the supernatant and pellet stored at −20° C. prior to further analysis.
(§2) Initial assessment was performed across two experiments using one model recombinant CHO antibody producing cell line (CH0149) to determine the appropriate concentrations of each inhibitor to use for the assessment of the full panel (FIGS. 1A-1C and 2A-2F).

Series [2] has as its system GS KO Lonza host cells expressing cB72.3 monoclonal antibody. As to the kind of experiment: Cell line construction with MSX plus proteasome or ERAD inhibitors (Example 6), cB72.3 titre by Octet and western blot. In kind it is cell-based, Chinese hamster. The conditions noted are these: for cell specific productivities compared to MSX control pools: MG-132 particularly 31.25 nM, various concentrations of epoxomicin and eeyarestatin; for monoclonal antibody titre higher than control pool: 31.25 nM MG-132 and 37.5 μM MSX, 168 h of batch culture. As for the experimental part: Multiple electroporations with 20 μg of linearized GS cB72.3 monoclonal antibody containing construct with 1×10^7 viable GS KO Lonza host cells were performed and pooled. This pool was then set up into 10 ml cultures, each containing approximately 0.25×10^6 cells and 10 μg DNA, and immediately placed in a static incubator at 37° C. with 5% CO2. Cell media consisted of commercially available CD-CHO media without glutamine and the addition of MSX and inhibitors as outlined below. 24 hours post transfection, MSX was added to the media to make the culture volume up to 15 ml and provide a final MSX concentration of 37.5 μM. The different inhibitors were then added to the pools a further 24 hours after the addition of MSX. A range of concentrations were added for each inhibitor to give the final concentrations in the flasks as described in FIG. 13. Only one inhibitor treatment was performed per flask (no combined treatments) and all were performed in combination with 37.5 μM MSX as outlined in FIG. 13.
The cell pools were then left in the static incubator at 37° C. and 5% CO2 until the viable cell concentration in the flask reached ˜0.2×10^6 cells/ml. When this viable cell number was achieved, cell pools were moved into 125 mL Erlenmeyer shake flasks and cultured in a 20 mL volume of CD-CHO including MSX and the appropriate concentration of inhibitor at 37° C. under a 5% CO2 in air environment with shaking at 140 rpm. 24 out of 33 transfections/pools were eventually moved across to shake flasks as they exceeded the required viable cell concentration described above.
Cell pools were then cultured in the presence of the appropriate inhibitor (and inhibitor concentration and 37.5 μM MSX) in 20 mL of CD-CHO for several passages (each being seeded at 0.2×10^6 viable cells/ml) before batch cultures were set up for each to assess the growth of the pool and to sample for product concentration over the duration of culture. For this purpose 20 ml batch cultures (seeded at 0.2×10^6 viable cells/ml) were sampled at 48, 96 and 168 hours for growth and titre information. The cell pools were also then passaged for an additional two passages in the absence of the inhibitors (but containing MSX) to determine if any changes in growth or productivity were observed, i.e. were the improved culture titres only maintained if the inhibitor was continually present.
On the technique in general: Biolayer interferometry detects binding as a change in optical thickness at a sensor tip.

Another series has as its system GS-KO CHO host cell line. As to the kind of experiment: Host selection/adaptation in presence of inhibitors, then transient transfection with cB72.3 (Example 8). It is filed as cell-based, Chinese hamster. The protocol:
In order to ascertain if adapted/selected host cells with the ability to produce enhanced recombinant protein yields and quality could be generated by culturing the Lonza GS-KO CHO host cell line in the presence of the protein degradation inhibitors, the GS-KO host cell line was cultured in the presence of various protein degradation inhibitors for a series of passages. The host cell line was therefore cultured in 20 ml CD-CHO+6 mM glutamine+the appropriate inhibitors as outlined below in 125 ml Erlenmeyer shake flasks at 37° C. under a 5% CO2 in air environment with shaking at 140 rpm. At each passage the new culture was seeded at 0.2×10^6 viable cells/ml. Cells were passaged when the cell number exceeded 1×10^6 viable cells per mL.
However, cells in the presence of this concentration of MG132 were subjected to 4 passages at this concentration and then a further 2 in the absence of the drug. At this time there was sufficient cells for the transfection following passage of the cells without the drug (2nd experiment of the two) to be undertaken.
Transient transfection of the emerging cell host pools described above was then performed via electroporation with 20 μg of the model cB72.3 plasmid and 1×10^7 viable cells and the cells placed in 20 ml of fresh CD-CHO media plus 6 mM glutamine in 125 ml Erlenmeyer shake flasks and cultured at 37° C. under a 5% CO2 in air environment with shaking at 140 rpm. This was undertaken for the host cell pools that had been in the presence of the inhibitors continually and those that had been passaged for an additional two passages in the absence of the inhibitors. Samples were taken from these batch cultures to monitor growth and antibody titre at 48, 96 and 168 hours post-transfection.

The test system of a further series is ER translocation. To be noted: in vivo; cited from earlier work.
For series [3], the system named is CHOK1 GS-KO cells producing antibody A. The experiment in a line: Cell line construction with MSX plus proteasome inhibitor selection (Example 5), growth and antibody concentration by ELISA / Protein A HPLC. It is filed as cell-based, Chinese hamster. As for the experimental part:
The electroporation was performed in the GSKO suspension cell line. A count was performed of the culture in mid exponential phase and the remaining culture centrifuged at 1000 rpm and the supernatant removed. 1×10^7 cells were required per electroporation cuvette in a volume of 700 μl. Therefore, the pellet was resuspended to achieve the concentration of cells for the number of electroporations required. Electroporations were performed with 20 μg linearized plasmid at 300 V, a capacitance of 900 μF and using cuvettes with a 4 mm gap. Each cuvette was added to 20 ml of fresh media with 2 ml of that volume used to rinse out the cuvette. For the cell line construction experiment, then all electroporations were pooled together to give a final volume of 300 ml. This was thoroughly mixed and then distributed in 10 ml volumes between 30×T75 tissue culture flasks. The flasks were then incubated statically at 36.5° C. with 5% CO2. 24 hours after the transfection, the glutamine synthetase inhibitor (MSX) was added to provide selection of the cells successfully taking up the plasmid and expressing the selection marker GS. 5 ml volumes of the MSX stocks with CD-CHO media were added to give either a final culture concentration of either 25, 37.5 or 50 μM MSX. The addition of the proteasome inhibitors was then performed at the appropriate time-point following MSX selection as determined by the design of experiments layout detailed in Table 3. Filter sterilized DMSO was added as a control where no drug was required in the combinations. Cultures were then incubated statically at 36.5° C. and 5% CO2 for approximately two weeks following addition of MSX. […] Once a viable cell concentration of at least 0.2×10^6 cells/ml was achieved, the cultures were moved into 20 ml shake flask cultures at 36.5° C. and 5% CO2 with shaking at 140 rpm. From this point onwards routine sub-culture was performed every 3-4 days.
AffiniPure F(ab′)2 fragment goat anti-human IgG Fc fragment specific (minimal cross-reaction to bovine, horse, mouse serum proteins) (Jackson ImmunoResearch Laboratories Inc) was diluted in coating buffer (15 mM Na2CO3 and 35 mM NaHCO3, pH 9.7) to give a concentration of […]. 100 μl of the stock was then used to coat each well of 96 well plate (Nunc). Plates were covered with foil and stored at 4° C. overnight. […] Plates were again washed and ready-made TMB substrate (Cell signalling technology #7004) was added (100 μl/well). […] The optical density of each well was then measured at 450 nm. The concentration of the supernatant samples were then determined from the standard curve of the known concentrations of IgG. […]

The nature of series [4]: Initial assessment of inhibitor concentrations on recombinant CHO cell line growth (viable cell number, culture viability, ViCell). It is filed as cell-based, Chinese hamster. To be noted: Chinese hamster. The protocol: as §1, §2
The next series has as its system apoptosis. To be noted: cited from earlier work.
[5] abbreviates: immediately after treatment with inhibitors.
Where [6] appears, read: two passages in the absence of inhibitors.
Where [7] appears, read: host initially cultured with Eeyarestatin I or 6.25 nM Epoxomicin, then 2 passages without inhibitor.

Turning to `CC1(C)C(N(O)C(=O)Nc2ccc(Cl)cc2)N(c2ccc(Cl)cc2)C(=O)N1CC(=O)N/N=C/C=C/c1ccc([N+](=O)[O-])o1` (stereo not shown) [eeyarestatin I], the “decrease in viable cell number” value in series [1] (1 μM, 48 hours after addition, two experiments) is recorded as 15-30%. Further, the “effect on the culture viability parameters” value in series [1] (10 μM, two experiments) was “consistently showed an effect”. Further, the “cell specific productivities compared to MSX control pools” value in series [2] (setting [5]) and in series [2] (setting [6]) was “enhanced” each time. Further, in the series with GS-KO CHO host cell line (0.1 μM in culture media for selection/adaptation of host), the “cell specific productivity and titre” value was “increase in cell specific productivity and titre”. The “transient antibody titres versus DMSO control cells” value in the series on GS-KO CHO host cell line (host cultured with 0.1 μM Eeyarestatin I before transfection) and in the series with GS-KO CHO host cell line (setting [7]) was “higher transient titres” in each case. The “concentration sufficient to block ER translocation” value in the series on ER translocation was 8 µM.
With `CC[C@H](C)[C@H](NC(=O)[C@H]([C@@H](C)CC)N(C)C(C)=O)C(=O)N[C@H](C(=O)N[C@@H](CC(C)C)C(=O)[C@@]1(C)CO1)[C@@H](C)O` [epoxomicin], the “decrease in viable cell numbers” value in series [1] (0.05 μM, 48 hours after addition, two experiments) was 30-50%. Also, the “detrimental effects over time” value in series [1] (0.01, 0.005 and 0.001 μM) is listed as “not showing any detrimental effects until 72 hours”. Also, in series [1] (0.01, 0.005 and 0.001 μM), the viable cell number entry is listed as “increase in viable cell number”. In addition, in series [1] (0.5 and 1 μM, 48 hours after addition, compared to control), the “decrease in viable cell number” value is 90%. For the same molecule, the “cell specific productivities compared to MSX control pools” value in series [2] (setting [5]) and in series [2] (setting [6]) was “enhanced” throughout. Moreover, the “transient antibody titres versus DMSO control cells” value with GS-KO CHO host cell line (setting [7]) is “higher transient titres”. For the same molecule, the “increase in antibody concentration over control pools generated with MSX alone” value in series [3] (0.025 μM epoxomicin and 37.5 μM MSX, 192 hours of batch culture) is 3-7 fold. The “maximum viable cell number” value in series [3] (pool CLC18 constructed with 0.025 μM epoxomicin and 37.5 μM MSX, batch culture without inhibitor) is reported as 5.328×10^6 cells/ml.
As to `CC(C)C[C@@H](C=O)NC(=O)[C@H](CC(C)C)NC(=O)[C@H](CC(C)C)NC(=O)OCc1ccccc1` [MG-132, Z-Leu-Leu-Leu-al] (Cbz-Leu-Leu-Leu-aldehyde), in series [4] (0.5 and 1 μM, 48 hours after addition, compared to control, read-out: decrease in viable cell number), the cytotoxicity at 48 h was around 40%. Also, the cytotoxicity at 0.5 μM in series [4] (read-out: reduction of cell concentration and culture viability compared to control) is 30 to 60%. Also, in series [1] (0.1 μM), the “effect on culture viability and cell numbers” value is “less of an effect”. Further, the “reduction in the culture viability to” value in series [1] (0.5 and 1 μM, 48 hours after addition) is reported as “approximately 50%”. Further, the “cell numbers and culture viability” value in series [1] (5 and 10 μM, 48 hours after addition) is given as “dramatically reduced”. Also, the “concentration shown to induce apoptosis” value in the series on apoptosis was 1.5 µM. Further, the “monoclonal antibody titre higher than control pool” value in series [2] (cells continually cultured with inhibitor) and in series [2] (two passages in the absence of inhibitor) was around 4 fold in each case. The “final inhibitor concentrations that resulted in the emergence of cell pools” value in series [2] (alongside 37.5 μM MSX) was 15.625 nM and 31.25 nM. Also, the “cell specific productivities compared to MSX control pools” value in series [2] (setting [5]) and in series [2] (setting [6]) was “enhanced” each time. Moreover, the “host cell growth in presence of inhibitor” value in the series with GS-KO CHO host cell line (125 nM, transfection immediately after culture with drug) was “not sufficient cells”. In addition, the “increase in the amount of antibody in cell culture supernatant over MSX alone pools” value in series [3] (0.0625 μM MG-132 and 37.5 μM MSX, 192 hours of batch culture) is given as around 4 fold. For the same molecule, in series [3] (concentrations used in Example 2), the “viable cell counts following electroporation and cell line construction” value was “poor viable cell counts”.
